From patent US20230131535A1, “ARYLMETHYLENE AROMATIC COMPOUNDS AS Kv1.3 POTASSIUM SHAKER CHANNEL BLOCKERS” (D. E. Shaw Research, LLC, priority 2019, published 2023)
Like-named read-outs stand apart in the source and are kept apart here.

Assays:
Kv1.3 potassium channel = target: T1, Kv1.3 potassium channel (Homo sapiens, UniProt P22001); test: Kv1.3 potassium channel blocker activity, automated whole-cell patch clamp (Patchliner); type: cell-based; settings: CHO-K1 cells stably expressing Kv1.3, whole cell current, pulses -90 mV to +40 mV, read-out: Kv1.3_IC50
T1 construct: expressed in transfected cells
T1 sequence (P22001 whole entry): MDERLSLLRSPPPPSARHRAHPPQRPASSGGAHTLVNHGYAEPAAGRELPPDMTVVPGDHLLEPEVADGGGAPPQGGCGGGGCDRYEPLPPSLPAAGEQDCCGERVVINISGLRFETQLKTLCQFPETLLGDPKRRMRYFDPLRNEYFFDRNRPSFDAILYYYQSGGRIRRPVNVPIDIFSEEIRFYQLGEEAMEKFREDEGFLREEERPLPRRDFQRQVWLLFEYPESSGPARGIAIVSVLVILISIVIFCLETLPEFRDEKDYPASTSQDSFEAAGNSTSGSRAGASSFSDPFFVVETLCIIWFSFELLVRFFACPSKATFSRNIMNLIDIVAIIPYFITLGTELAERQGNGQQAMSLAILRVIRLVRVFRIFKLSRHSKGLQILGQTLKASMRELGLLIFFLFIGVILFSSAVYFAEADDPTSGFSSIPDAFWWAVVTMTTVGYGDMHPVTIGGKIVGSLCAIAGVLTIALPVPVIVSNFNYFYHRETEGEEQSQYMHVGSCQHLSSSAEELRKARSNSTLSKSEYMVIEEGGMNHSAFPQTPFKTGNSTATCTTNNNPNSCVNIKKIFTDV
Description: Example 67. Evaluation of Kv1.3 Potassium Channel Blocker Activities
The assay described below is used to evaluate the disclosed compound's activities as Kv1.3 potassium channel blockers.
CHO-K1 cells stably expressing Kv1.3 were grown in DMEM containing 10% heat-inactivated FBS, 1 mM Sodium Pyruvate, 2 mM L-Glutamine and G418 (500 μg/ml). Cells were grown in culture flasks at 37° C. in a 5% CO2-humidified incubator.
(§1) The cells were bathed in an extracellular solution containing 140 mM NaCl, 4 mM KCl, 2 mM CaCl2), 1 mM MgCl2, 5 mM Glucose, 10 mM HEPES; pH adjusted to 7.4 with NaOH; 295-305 mOsm. The internal solution contained 50 mM KCl, 10 mM NaCl, 60 mM KF, 20 mM EGTA, 10 mM HEPES; pH adjusted to 7.2 with KOH; 285 mOsm. All compounds were dissolved in DMSO at 30 mM. Compound stock solutions were freshly diluted with external solution to concentrations of 30 nM, 100 nM, 300 nM, 1 μM, 3 μM, 10 μM, 30 μM and 100 μM. The highest content of DMSO (0.3%) was present in 100 μM.
The currents were evoked by applying 100 ms depolarizing pulses from −90 mV (holding potential) to +40 mV were applied with 0.1 Hz frequency. Control (compound-free) and compound pulse trains for each compound concentration applied contained 20 pulses. 10 second breaks were used between pulse trains (see Table 4 below).
Whole cell current recordings and compound application were enabled by means of an automated patch clamp platform Patchliner (Nanion Technologies GmbH). EPC 10 patch clamp amplifier (HIEKA Elektronik Dr. Schulze GmbH) along with Patchmaster software (HIEKA Elektronik Dr. Schulze GmbH) was used for data acquisition. Data were sampled at 10 kHz without filtering. Passive leak currents were subtracted online using a P/4 procedure (HEKA Elektronik Dr. Schulze GmbH). Increasing compound concentrations were applied consecutively to the same cell without washouts in between. Total compound incubation time before the next pulse train was not longer than 10 seconds. Peak current inhibition was observed during compound equilibration.
(§2) AUC and peak values were obtained with Patchmaster (HEKA Elektronik Dr. Schulze GmbH). To determine IC50, the last single pulse in the pulse train corresponding to a given compound concentration was used. Obtained AUC and peak values in the presence of compound were normalized to control values in the absence of compound. Using Origin (OridinLab), IC50 was derived from data fit to Hill equation: Icompound/Icontrol=(100−A)/(1+([compound]/IC50)nH)+A, where IC50 value is the concentration at which current inhibition is half-maximal, [compound] is the applied compound concentration, A is the fraction of current that is not blocked and nH is the Hill coefficient.

hERG channel = target: T2, hERG channel (Homo sapiens, UniProt Q12809); test: hERG electrophysiology, automated whole-cell patch clamp (Patchliner); type: cell-based; settings: Table 6; CHO-K1 cells stably expressing hERG; whole cell current, tail current protocol; read-out: hERG_IC50
T2 construct: expressed in transfected cells
T2 sequence (Q12809 whole entry): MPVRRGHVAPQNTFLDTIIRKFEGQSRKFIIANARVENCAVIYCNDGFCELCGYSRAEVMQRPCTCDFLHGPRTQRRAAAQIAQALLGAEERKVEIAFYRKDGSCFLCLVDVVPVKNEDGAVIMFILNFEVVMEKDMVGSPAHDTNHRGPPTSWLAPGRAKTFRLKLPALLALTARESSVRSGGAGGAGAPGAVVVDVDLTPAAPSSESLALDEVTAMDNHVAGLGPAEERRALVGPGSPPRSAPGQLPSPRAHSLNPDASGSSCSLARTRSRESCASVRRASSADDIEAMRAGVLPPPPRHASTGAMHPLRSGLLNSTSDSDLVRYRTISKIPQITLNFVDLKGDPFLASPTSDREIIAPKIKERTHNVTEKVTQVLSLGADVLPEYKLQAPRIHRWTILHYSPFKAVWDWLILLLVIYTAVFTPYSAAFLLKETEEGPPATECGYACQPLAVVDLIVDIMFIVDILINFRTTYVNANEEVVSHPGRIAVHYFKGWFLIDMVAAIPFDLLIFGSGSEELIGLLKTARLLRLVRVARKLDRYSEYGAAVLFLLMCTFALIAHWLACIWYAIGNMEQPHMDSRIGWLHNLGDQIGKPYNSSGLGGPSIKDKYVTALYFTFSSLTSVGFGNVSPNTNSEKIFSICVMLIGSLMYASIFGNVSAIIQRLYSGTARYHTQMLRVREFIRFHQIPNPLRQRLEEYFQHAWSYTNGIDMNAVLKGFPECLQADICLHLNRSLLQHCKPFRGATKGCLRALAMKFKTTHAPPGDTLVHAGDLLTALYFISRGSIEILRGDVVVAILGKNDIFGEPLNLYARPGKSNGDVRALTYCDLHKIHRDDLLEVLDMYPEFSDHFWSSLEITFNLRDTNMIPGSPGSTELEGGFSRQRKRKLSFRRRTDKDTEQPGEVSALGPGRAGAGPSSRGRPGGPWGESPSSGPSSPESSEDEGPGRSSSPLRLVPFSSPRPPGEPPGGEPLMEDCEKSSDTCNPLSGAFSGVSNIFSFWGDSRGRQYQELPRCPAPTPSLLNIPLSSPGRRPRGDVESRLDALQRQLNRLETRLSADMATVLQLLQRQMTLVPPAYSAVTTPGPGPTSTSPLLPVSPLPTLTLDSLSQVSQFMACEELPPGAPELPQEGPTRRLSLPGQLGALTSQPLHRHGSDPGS
Description: Example 68. Evaluation of hERG Activities
This assay is used to evaluate the disclosed compounds' inhibition activities against the hERG channel.
CHO-K1 cells stably expressing hERG were grown in Ham's F-12 Medium with Glutamine containing 10% heat-inactivated FBS, 1% Penicillin/Streptomycin, Hygromycin (100 μg/ml) and G418 (100 μg/ml). Cells were grown in culture flasks at 37° C. in a 5% CO2-humidified incubator.
as §1
The voltage protocol (see Table 5) was designed to simulate voltage changes during a cardiac action potential with a 300 ms depolarization to +20 mV (analogous to the plateau phase of the cardiac action potential), a repolarization for 300 ms to −50 mV (inducing a tail current) and a final step to the holding potential of −80 mV. The pulse frequency was 0.3 Hz. Control (compound-free) and compound pulse trains for each compound concentration applied contained 70 pulses.
Whole cell current recordings and compound application were enabled by means of an automated patch clamp platform Patchliner (Nanion). EPC 10 patch clamp amplifier (HEKA) along with Patchmaster software (HEKA Elektronik Dr. Schulze GmbH) was used for data acquisition. Data were sampled at 10 kHz without filtering. Increasing compound concentrations were applied consecutively to the same cell without washouts in between.
as §2, with “PEAK” for “peak”, “IC50” for “IC50,”, “IC50” for “IC50 value”

IC50 (Kv1.3 potassium channel; Table 6) [µM] | IC50 (Kv1.3 potassium channel; Table 7) [µM] | SMILES | IC50 (hERG channel) [µM]
– | < 10 | C[C@@H](NC(=O)[C@@H]1CCCNC1)c1c(O)ccc(Cl)c1Cl [Compound 79, (3R)-N-[(1R)-1-(2,3-dichloro-6-hydroxyphenyl)ethyl]piperidine-3-carboxamide] | –
– | < 10 | C[C@H](NC(=O)[C@H]1CCCNC1)c1c(O)ccc(Cl)c1Cl [Compound 80, (3S)-N-[(1S)-1-(2,3-dichloro-6-hydroxyphenyl)ethyl]piperidine-3-carboxamide] | –
– | < 1 | C[C@H](NC(=O)[C@@H]1CCCNC1)c1c(O)ccc(Cl)c1Cl [Compound 81, (3R)-N-[(1S)-1-(2,3-dichloro-6-hydroxyphenyl)ethyl]piperidine-3-carboxamide] | –
– | < 10 | Cc1cc(O)c([C@H](C)NC(=O)C2CNC2)cc1Cl [Compound 82, N-[(1S)-1-(5-chloro-2-hydroxy-4-methylphenyl)ethyl]azetidine-3-carboxamide] | –
– | < 10 | C[C@H](NC(=O)CO)c1c(O)ccc(Cl)c1Cl [Compound 83, N-[(1S)-1-(2,3-dichloro-6-hydroxyphenyl)ethyl]-2-hydroxyacetamide] | –
– | < 10 | C[C@H](NC(=O)[C@H](O)CO)c1c(O)ccc(Cl)c1Cl [Compound 84, (2R)-N-[(1S)-1-(2,3-dichloro-6-hydroxyphenyl)ethyl]-2,3-dihydroxypropan-amide] | –
– | < 10 | C[C@H](NC(=O)[C@@H](O)CO)c1c(O)ccc(Cl)c1Cl [Compound 85, (2S)-N-[(1S)-1-(2,3-dichloro-6-hydroxyphenyl)ethyl]-2,3-dihydroxypropan-amide] | –
– | < 10 | C[C@H](NC(=O)C1CNC1)c1cc(Cl)c(Cl)cc1O [Compound 86, N-[(1S)-1-(4,5-dichloro-2-hydroxyphenyl)ethyl]azetidine-3-carboxamide] | –
– | < 10 | C[C@H](NC(=O)C1(O)CNC1)c1c(O)ccc(Cl)c1Cl [Compound 87] | –
– | < 10 | C[C@H](NC(=O)C1CN(C(=O)CO)C1)c1c(O)ccc(Cl)c1Cl [Compound 88, N-[(1S)-1-(2,3-dichloro-6-hydroxyphenyl)ethyl]-1-(2-hydroxyacetyl) azetidine-3-carboxamide] | –
– | < 1 | C[C@H](NC(=O)C1CCNCC1)c1c(O)ccc(Cl)c1Cl [Compound 90, N-[(1S)-1-(2,3-dichloro-6-hydroxyphenyl)ethyl]piperidine-4-carboxamide] | –
– | < 10 | CC(NC(=O)C1CNCCO1)c1c(O)ccc(Cl)c1Cl (centres unmarked) [Compound 92, N-[1-(2,3-dichloro-6-hydroxyphenyl)ethyl]morpholine-2-carboxamide] | –
– | < 1 | C[C@H](NC(=O)[C@H]1CCNC1)c1c(O)ccc(Cl)c1Cl [Compound 93, (3S)-N-[(1S)-1-(2,3-dichloro-6-hydroxyphenyl)ethyl]pyrrolidine-3-carboxamide] | –
– | < 10 | Cc1cc(O)c([C@@H](N)CNC(=O)C2CNC2)cc1Cl [Compound 95, N-[(2R)-2-amino-2-(5-chloro-2-hydroxy-4-methylphenyl)ethyl] azetidine-3-carboxamide] | –
– | < 10 | Cc1cc(O)c(C(N)CNC(=O)CO)cc1Cl (centres unmarked) [Compound 96, N-[2-amino-2-(5-chloro-2-hydroxy-4-methylphenyl)ethyl]-hydroxyacetamide] | –
– | < 1 | Cc1cc(O)c(C(N)CC(=O)NC2CNC2)cc1Cl (centres unmarked) [Compound 97, 3-amino-N-(azetidin-3-yl)-3-(5-chloro-2-hydroxy-4-methylphenyl)propenamide] | –

Second part, the compound before the results:

SMILES | IC50 (Kv1.3 potassium channel; Table 6) [µM] | IC50 (Kv1.3 potassium channel; Table 7) [µM] | IC50 (hERG channel) [µM]
Oc1ccc(Cl)c(Cl)c1C(O)c1ccncc1 (single isomer, unassigned) [Compound 34, 3,4-dichloro-2-(hydroxy(pyridin-4-yl)methyl)phenol] | < 30 | – | > 30
Oc1ccc(Cl)c(Cl)c1C(O)c1ccncc1 (single isomer, unassigned) [Compound 37, 3,4-dichloro-2-(hydroxy(pyridin-4-yl)methyl)phenol] | < 1 | – | > 30
CC(=O)NC(c1ccncc1)c1c(O)ccc(Cl)c1Cl (single isomer, unassigned) [Compound 38, N-((2,3-dichloro-6-hydroxyphenyl)(pyridin-4-yl)methyl)acetamide] | < 30 | – | > 30
CC(=O)NC(c1ccncc1)c1c(O)ccc(Cl)c1Cl (single isomer, unassigned) [Compound 41, N-((2,3-dichloro-6-hydroxyphenyl)(pyridin-4-yl)methyl)acetamide] | < 1 | – | > 30
Nc1cc(C(O)c2c(O)ccc(Cl)c2Cl)ccn1 (single isomer, unassigned) [Compound 45, 2-[(2-aminopyridin-4-yl)(hydroxy)methyl]-3,4-dichlorophenol] | < 1 | – | > 30
Cc1cnccc1C(O)c1c(O)ccc(Cl)c1Cl (single isomer, unassigned) [Compound 46, 3,4-dichloro-2-[hydroxy(3-methylpyridin-4-yl)methyl]phenol] | < 1 | – | > 30
O=C(NC(c1ccncc1)c1c(O)ccc(Cl)c1Cl)C1CNC1 (single isomer, unassigned) [Compound 50, N-[(2,3-dichloro-6-hydroxyphenyl)(pyridin-4-yl)methyl]azetidine-3-carboxamide] | < 1 | – | > 30
O=C(c1ccncc1)c1c(O)ccc(Cl)c1Cl [Compound 61, 3,4-dichloro-2-(pyridine-4-carbonyl)phenol] | < 10 | – | –
Nc1ccc(Cl)c(Cl)c1C(=O)c1ccncc1 [Compound 62, 3,4-dichloro-2-(pyridine-4-carbonyl)aniline] | < 10 | – | –
COCC(=O)NC(c1ccncc1)c1c(O)ccc(Cl)c1Cl (centres unmarked) [Compound 63, N-[(2,3-dichloro-6-hydroxyphenyl)(pyridin-4-yl)methyl]-2-methoxyacetamide] | < 10 | – | –
CC(C)C(=O)NC(c1ccncc1)c1c(O)ccc(Cl)c1Cl (centres unmarked) [Compound 69, N-[(2,3-dichloro-6-hydroxyphenyl)(pyridin-4-yl)methyl]-2-methylpropanamide] | < 30 | – | –
COc1ccc(Cl)c(Cl)c1C(N)c1ccncc1 (centres unmarked) [Compound 70, 1-(2,3-dichloro-6-methoxyphenyl)-1-(pyridin-4-yl)methanamine] | < 30 | – | –
CN(C(=O)C1CNC1)C(c1ccncc1)c1c(O)ccc(Cl)c1Cl (centres unmarked) [Compound 71, N-[(2,3-dichloro-6-hydroxyphenyl)(pyridin-4-yl)methyl]-N-methylazetidine-3-carboxamide] | < 30 | – | –
Cn1cc(C(c2ccncc2)c2c(O)ccc(Cl)c2Cl)cn1 (centres unmarked) [Compound 74, 3,4-dichloro-2-[(1-methyl-1H-pyrazol-4-yl)(pyridin-4-yl)methyl]phenol] | < 30 | – | –
C[C@@H](NC(=O)C1CNC1)c1c(O)ccc(Cl)c1Cl [Compound 77, N-[(1R)-1-(2,3-dichloro-6-hydroxyphenyl)ethyl]azetidine-3-carboxamide] | – | < 1 | –
